We go through five compounds from patent US9718770B2, “Substituted thioureas as heat shock protein 70 inhibitors” (Institute of Pharmacology and Toxicology Academy of …, priority 2013, dated 2017).

One assay concerns SK-BR3. As to the kind of experiment: CDI of example compounds and Lapatinib (ATPlite cell survival). The note with it: compound 5 μM + Lapatinib 1 μM, 72 h; Lapatinib-sensitive human breast cancer cells; CDI<1 synergistic. The format is cell-based. Further details: key: CDI = AB/(A×B); <1 synergistic. Summed up: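 SK-BR3 Lapatinib-sensitive human breast cancer cells were plated in 96-well plates at 5000 cell/well, allowed to adhere for 24 h at 37° C., then exposed for 72 h to test compound at 5 μM alone or combined with Lapatinib at 1 μM. Viability came from ATPlite luminescence, and the coefficient of drug interaction was computed as CDI=AB/(A×B)×100%, with CDI<1 indicating synergy.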

The test system of another assay is MDA-MB-361. Described as above. The format is cell-based. Also on record: key: CDI = AB/(A×B); <1 synergistic. As to conditions: compound 5 μM + Lapatinib 1 μM, 72 h; natural Lapatinib-resistant human breast cancer cells; CDI<1 synergistic. In outline:
(§1)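 BT474, MDA-MB-361, BT/LapR and MDA-MB-453 cells seeded at 5000/well, adhered 24 h, then exposed 72 h at 37 °C to test compound (final 5 μM) alone or with lapatinib (final 1 μM). Survival by ATPlite luminescence vs solvent control; CDI = AB/(A×B) from live-cell RLU.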

A further assay has as its system MDA-MB-453. The description is as above. The format is cell-based. Also on record: key: CDI = AB/(A×B); <1 synergistic. The note with it: compound 5 μM + Lapatinib 1 μM, 72 h; natural Lapatinib-resistant human breast cancer cells; CDI<1 synergistic. In outline: as §1
The test system of a further assay is BT474. The description is as above. The format is cell-based. Further details: key: CDI = AB/(A×B); <1 synergistic. The note with it: compound 5 μM + Lapatinib 1 μM, 72 h; Lapatinib-sensitive human breast cancer cells; CDI<1 synergistic, <0.7 very significant, >1 antagonistic. Summed up: as §1
In another assay the target is T1, Hsp70 ATPase (Homo sapiens, UniProt P0DMV8).
T1 construct: made in house; host or cells: E. coli
As to the kind of experiment: Inhibition of Hsp70 ATPase activity (malachite green). The format is biochemical. As to conditions: 200 μM; repeated screening carried out twice; Hsp70/Hsp40, 1 mM ATP; read-out: Inhibitory rate (%) on activity of Hsp70 ATPase. Summed up:
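Human Hsp70 (DnaK) with its co-chaperone Hsp40 (DnaJ), both produced in E. coli, was mixed in buffer of 100 mM Tris-HCl, 20 mM KCl, 6 mM MgCl2 and 0.017% Triton X-100 (pH 7.4). Test sample or DMSO was added, agitated for 10 min, then held at 37° C. for 30 min. Adding 1 mM ATP started hydrolysis for 3 h at 37° C. Malachite green and 34% sodium citrate were then added, and OD620 gave percent inhibition against DMSO and blank wells.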

The subject of another assay is BT/Lap^R1.0. As to the kind of experiment: CDI of example compounds and Lapatinib (ATPlite cell survival). The format is cell-based. The note with it: compound 5 μM + Lapatinib 1 μM, 72 h; secondary Lapatinib-resistant human breast cancer cells; CDI<1 synergistic. In outline:
as §1

The next assay concerns SK/Lap^R1.0. Described as above. The format is cell-based. As to conditions: compound 5 μM + Lapatinib 1 μM, 72 h; secondary Lapatinib-resistant human breast cancer cells; CDI<1 synergistic. Summed up: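 SK/LapR cells, a human breast cancer line with acquired Lapatinib resistance, were seeded in 96-well plates at 5000 cells/well and left to adhere for 24 h at 37° C. They then received test compound at 5 μM, alone or together with 1 μM Lapatinib, for 72 h. ATPlite luminescence measured survival, and CDI = AB/(A×B)×100% was calculated, with CDI<1 meaning synergy.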

T1 sequence (P0DMV8 2-641 limits assumed): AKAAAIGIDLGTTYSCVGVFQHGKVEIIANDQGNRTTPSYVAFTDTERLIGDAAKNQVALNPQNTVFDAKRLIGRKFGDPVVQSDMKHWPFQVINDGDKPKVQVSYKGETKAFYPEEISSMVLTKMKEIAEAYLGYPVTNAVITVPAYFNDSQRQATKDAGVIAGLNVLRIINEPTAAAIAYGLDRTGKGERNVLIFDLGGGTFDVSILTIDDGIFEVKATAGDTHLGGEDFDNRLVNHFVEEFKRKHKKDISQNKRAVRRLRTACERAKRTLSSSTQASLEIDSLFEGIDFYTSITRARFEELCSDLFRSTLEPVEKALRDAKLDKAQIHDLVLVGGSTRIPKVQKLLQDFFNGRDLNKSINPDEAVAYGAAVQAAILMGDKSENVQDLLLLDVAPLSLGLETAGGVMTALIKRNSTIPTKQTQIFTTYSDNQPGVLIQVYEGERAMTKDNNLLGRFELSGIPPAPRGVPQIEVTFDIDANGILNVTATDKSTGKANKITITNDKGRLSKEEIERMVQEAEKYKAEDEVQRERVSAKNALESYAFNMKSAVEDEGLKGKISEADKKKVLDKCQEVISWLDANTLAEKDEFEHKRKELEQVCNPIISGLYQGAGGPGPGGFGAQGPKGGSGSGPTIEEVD

For `O=C(/C=C/c1ccccc1)NC(NC(=S)Nc1ccccc1)C1CC1` (centres unmarked) [Example 41], the “CDI of example compounds and Lapatinib, SK-BR3” value (shortened to “CDI … SK-BR3”) with SK-BR3 amounted to 1.09. Further, the “CDI of example compounds and Lapatinib, MDA-MB-361” value (“CDI … MDA-MB-361” below) in the assay with MDA-MB-361 came to 0.91. Further, in the assay on MDA-MB-453, the “CDI of example compounds and Lapatinib, MDA-MB-453” value (from here on “CDI … MDA-MB-453”) amounted to 1.07. The “CDI of example compounds and Lapatinib, BT474” value (shortened to “CDI … BT474”) in the assay on BT474 is listed as 0.91. Besides, the inhibition at 200 µM on Hsp70 ATPase was determined as 22.5%. For the same compound, the “CDI of example compounds and Lapatinib, BT/Lap^R1.0” value (shortened to “CDI … BT/Lap^R1.0”) in the assay with BT/Lap^R1.0 came to 0.99. For the same compound, the “CDI of example compounds and Lapatinib, SK/Lap^R1.0” value (“CDI … SK/Lap^R1.0” for short) with SK/Lap^R1.0 came out at 1.02.
In the case of `CC(C)C(NC(=O)/C=C/c1ccccc1)NC(=S)Nc1ccccc1` (centres unmarked) [Example 42, (2E)-N-[2-methyl-1-(3-phenylthioureido)propyl] cinnamamide], the “CDI … SK-BR3” value in the assay on SK-BR3 was 1.14. The “CDI … MDA-MB-361” value in the assay on MDA-MB-361 worked out at 0.96. The “CDI … MDA-MB-453” value in the assay with MDA-MB-453 is 1.15. Also, the “CDI … BT474” value in the assay with BT474 was found to be 0.92. Besides, the inhibition at 200 µM on Hsp70 ATPase is -4.2%. In addition, the “CDI … BT/Lap^R1.0” value in the assay on BT/Lap^R1.0 amounted to 0.99. For the same compound, in the assay with SK/Lap^R1.0, the “CDI … SK/Lap^R1.0” value was 0.99.
For the compound `Cc1ccccc1NC(=S)NC(CC(C)C)NC(=O)/C=C/c1ccccc1` (centres unmarked) [Example 47, N-[3-methyl-1-(3-o-methylphenylthioureido)butyl] cinnamamide], the “CDI … SK-BR3” value in the assay on SK-BR3 is given as 1.15. The “CDI … MDA-MB-361” value in the assay on MDA-MB-361 is on record as 1.05. For the same compound, the “CDI … MDA-MB-453” value in the assay with MDA-MB-453 was found to be 1.39. Further, the “CDI … BT474” value in the assay on BT474 turned out to be 0.84. Moreover, on Hsp70 ATPase, the inhibition at 200 µM amounted to 61.3%. In addition, the “CDI … BT/Lap^R1.0” value in the assay with BT/Lap^R1.0 turned out to be 0.97. Moreover, the “CDI … SK/Lap^R1.0” value in the assay with SK/Lap^R1.0 amounted to 0.98.
For the compound `CNC(=S)NC(CC(C)C)NC(=O)/C=C/c1cc(OC)c(OC)c(OC)c1` (centres unmarked) [Example 43, (2E)-N-[3-methyl-1-(3-methylthioureido)butyl]-3-(3,4,5-trimethoxyphenyl) acrylamide], the “CDI … SK-BR3” value in the assay on SK-BR3 was 1. In addition, in the assay with MDA-MB-361, the “CDI … MDA-MB-361” value came to 0.95. For the same compound, the “CDI … MDA-MB-453” value with MDA-MB-453 is 1.28. The “CDI … BT474” value with BT474 is recorded as 1.03. Moreover, the inhibition at 200 µM at Hsp70 ATPase was found to be 7.62%. For the same compound, the “CDI … BT/Lap^R1.0” value with BT/Lap^R1.0 was 1. Further, the “CDI … SK/Lap^R1.0” value in the assay on SK/Lap^R1.0 stood at 0.93.
Consider `COc1cc(/C=C/C(=O)NC(CC(C)(C)C)NC(=S)Nc2ccccn2)cc(OC)c1OC` (centres unmarked) [Example 34, (2E)-N-[3,3-dimethyl-1-(3-pyridin-2-ylthioureido)butyl]-3-(3,4,5-trimethoxyphenyl) acrylamide], for which the “CDI … SK-BR3” value with SK-BR3 came to 0.98. In addition, the “CDI … MDA-MB-361” value with MDA-MB-361 was determined as 0.87. For the same compound, the “CDI … MDA-MB-453” value with MDA-MB-453 is reported as 1.41. For the same compound, the “CDI … BT474” value with BT474 came out at 0.98. In addition, on Hsp70 ATPase, the inhibition at 200 µM is 9.36%. Moreover, the “CDI … BT/Lap^R1.0” value with BT/Lap^R1.0 is on record as 1. Moreover, in the assay on SK/Lap^R1.0, the “CDI … SK/Lap^R1.0” value is 0.85.
